Results as given in patent US4457932A, “Anti-ulcer agents” (Bristol-Myers Company, priority 1983, dated 1984).
Read-outs that look alike come from different tables or passages of the source.

How the values were obtained:
[1] = system: ethanol-induced gastric ulcers (lesions); test: Ethanol-induced ulcer model in the rat; type: in vivo, Adult male Long-Evans rats; settings: for inhibition in vivo at 30 mg/kg: 30 mg/kg p.o.; for inhibition in vivo at 50 mg/kg: 50 mg/kg p.o.
Description: The effectiveness of the compounds of Formula I as cytoprotective agents was determined by an ethanol-induced ulcer model in the rat. This model is a modification of the procedure described by A. Robert in Scand. J. Gastroenterology 16: (Suppl. 67): 243 (1981). This model which screens for cytoprotective compounds is based on the ability of 100% ethanol to produce gastric ulcers (primarily in the fundic region of the stomach) in rats in a dose-related manner. Further details of the model are described below.
Adult male Long-Evans rats weighing 275-300 grams (Blue Spruce Farm, Alton, N.Y.) are used. Animals are housed individually in stainless steel cages with wire-mesh bottoms. The housing battery is arranged into six groups of five each, individually numbered from rat number 1, group 1 to rat number 5, group 6. Food and water are removed 24 and 18 hours, respectively, prior to testing. On the following day animals receive the test compound either p.o., s.c. or i.p. 30 minutes or more before administration of 100% ethanol (3.0 ml/kg) by gavage. Sixty minutes later the animals are sacrificed by administration of T-61 (Hoechst), 0.2 ml i.p.
An abdominal incision is made and, after clamping the esophagus just above the esophageal sphincter with tweezers, the stomach is carefully lifted from the abdominal cavity. Two cuts are made approximately 1/2" below the pyloric valve and 1/2" above the esophageal sphincter, and the stomach removed and set aside. This step is very rapid (2-3 seconds) and no loss of gastric contents is apparent. The size of the stomach including contents is noted as small, medium or large. Stomachs are cut open along the lesser curvature and the contents expressed into graduated centrifuge tubes.
Under these conditions, ethanol produces prominent macroscopic lesions in the corpus, but gross macroscopic changes are only very rarely observed in the forestomach. […] In addition, absence of the forestomach allows the remaining stomach to lie flat on a surface for photography and examination without undue stretching of the tissue. For these reasons, the forestomach (along with nongastric tissue) is removed.
The remaining corpus and antrum are rinsed in water and placed flat in a standard position. The tissue is photographed with a Polaroid close-up camera and scoring of lesions is done from this permanent record. Each photograph includes a reference scale in mm. Two scoring systems are used. For screening purposes each stomach is graded on a scale of 0 to 3 as described below:
Where more precise data are needed, e,g, in determining the ED50 for a compound, the total lesion area in mm is measured. Barely visible spots (petechiae) are scored as 1 mm each. For each treatment group, an average score is calculated. From this, the percent inhibition of lesion formation, I, is calculated as:
I=Lesion Score (controls)-Lesion Score(treated)X 100 Lesion Score(controls)
In dose-response studies, the ED50 (dose at which 50% inhibition of lesion formation occurs) is determined by probit analysis according to Finney.

[2] = system: HCl-induced gastric lesions; test: HCl-induced gastric lesions in the rat; type: in vivo; settings: po, read-out: ED50 against HCl-induced gastric lesions
[3] = system: cysteamine-induced duodenal ulcer; test: Cysteamine-induced duodenal ulcer model in rats; type: in vivo; settings: dosed seven times over 30 hours (40 mg/kg, p.o.)
Description: (§1) The compound of Formula I wherein R^4 is methyl and R^1, R^2 and R^3 are each hydrogen was also tested in several other ulcer models. […] The results in the above models are probably indicative of the lack of significant anti-secretory activity in the compound of the present invention.

[4] = system: gastric secretion; test: Gastric secretion in the conscious gastric fistula rat; type: in vivo; settings: oral, read-out: oral ED50, block of gastric secretion
Description: as §1

[5] = system: aspirin-stress gastric ulcer; test: Aspirin-stress gastric ulcer model in rats; type: in vivo; settings: 100 mg/kg p.o.
Description: as §1

[6] = po, rat, read-out: Antiulcer Activity, % Inhibition (of lesion formation)

Question: `Cc1ccn2c(=O)c(-c3nnn[nH]3)cnc2c1` was tested. Which inhibition in vivo at 30 mg/kg [1, 6] did it give?
Answer: 70%

Question: For `Cc1ccc2ncc(-c3nnn[nH]3)c(=O)n2c1`, which inhibition in vivo at 30 mg/kg [1, 6] is on record?
Answer: 79%

Question: For `CCCCC[C@H](O)/C=C/[C@H]1[C@H](O)CC(=O)[C@@H]1C/C=C\CCCC(=O)O` [PGE2, reference compound], which ED50 ([1]; oral, rat, read-out: oral ED50) is on record?
Answer: 0.024 mg/kg

Question: `Cc1cccc2ncc(-c3nnn[nH]3)c(=O)n12` was tested. Which inhibition in vivo at 30 mg/kg [1, 6] did it give?
Answer: 75%

Question: Which inhibition in vivo at 30 mg/kg [1, 6] does the source give for `Cc1cc(C)c2ncc(-c3nnn[nH]3)c(=O)n2c1` here?
Answer: 92%

Question: How did the inhibition in vivo at 30 mg/kg [1, 6] turn out when `CCCc1cccn2c(=O)c(-c3nnn[nH]3)cnc12` was run?
Answer: 77%

Question: `Cc1cccn2c(=O)c(-c3nnn[nH]3)cnc12` [drawing 30] was tested. Which inhibition in vivo at 30 mg/kg [1, 6] did it give?
Answer: 88%

Question: And the ED50 ([1]; po, rat, table footnote, read-out: ED50 (dose at which 50% inhibition of lesion formation occurs))?
Answer: 0.3 mg/kg

Question: For `CCCCc1ccc2ncc(-c3nnn[nH]3)c(=O)n2c1`, which inhibition in vivo at 30 mg/kg [1, 6] is on record?
Answer: 54%

Question: For sucralfate [reference compound], which “oral ED50” value ([1]; oral, rat) is on record?
Answer: 21 mg/kg

Question: With `CCc1cccn2c(=O)c(-c3nnn[nH]3)cnc12` as the molecule, how does the inhibition in vivo at 50 mg/kg [1, 6] read?
Answer: 96%

Question: `O=c1c(-c2nnn[nH]2)cnc2ccc(Cl)cn12` was tested. Which inhibition in vivo at 12.6 mg/kg ([1]; po, 12.6 mg/kg p.o., rat, read-out: Antiulcer Activity, % Inhibition (of lesion formation)) did it give?
Answer: 93%

Question: How did the inhibition in vivo at 30 mg/kg [1, 6] turn out when `O=c1c(-c2nnn[nH]2)cnc2c3c(ccn12)CCCC3` was run?
Answer: 68%

Question: Which ED50 ([1]; Rattus norvegicus) does the source give for `CN/C(=N/CCSCc1nc[nH]c1C)NC#N` [Cimetidine, reference compound] here?
Answer: 235 mg/kg

Question: For `CCCCc1cccn2c(=O)c(-c3nnn[nH]3)cnc12`, which inhibition in vivo at 50 mg/kg [1, 6] is on record?
Answer: 41%

Question: `Cc1cccn2c(=O)c(-c3nnn[nH]3)cnc12` was tested. Which ED50 [2] did it give?
Answer: 20.8 mg/kg

Question: And the “activity in cysteamine-induced duodenal ulcer model” value [3]?
Answer: inactive

Question: What about the ED50 [4] of the same molecule?
Answer: 27 mg/kg

Question: What about the “activity in aspirin-stress gastric ulcer model” value [5] of the same molecule?
Answer: inactive
